Test results reported in patent publication US10548897B2, “KSR antagonists” (Icahn School of Medicine at Mount Sinai, priority 2015, dated 2020).

What was measured:
[1] = tested on: MEK1 phosphorylation by B-RAF; assay: RAF phosphorylation assay, MEK1 alone (KSR absent); format: biochemical; settings: 10 μM compound, free MEK1
Description: (§1) FIGS. 9A-9C show phosphorylation of MEK1, KSR2:MEK1, and KSR2^A690F:MEK1 by B-RAF over time in the presence of Compound 21. Relative pMEK was determined by quantification of band intensities from western blots using Image Lab Software 4.1.
(§2) In particular, a variant of B-RAF was identified that could be expressed in high yield from E. Coli and which also retained near wild-type levels of kinase activity towards MEK1. For in vitro kinase assays, indicated concentrations of B-RAF and 1 μM KSR2-MEK1 or 1 μM MEK1 proteins were pre-incubated with 10 μM of indicated compounds for 15 minutes in buffer containing 25 mM Tris pH 7.5, 150 mM NaCl, 10 mM MgCl2, and 2% DMSO. Kinase reactions were initiated by the addition of 100 μM ATP and halted at the indicated times by the addition of 6×SDS loading dye. Samples were examined by western blotting as described for the ATP-biotin experiments and by probing overnight with a MEK1/2 Ser218-Ser222 phospho-specific antibody (Cell signaling). Membranes were visualized using enhanced chemiluminescence on a Biodoc (Biorad) for quantification purposes.

RAF = assay: Inhibitory activity against purified RAF; format: biochemical
[2] = tested on: MAPK pathway readouts (pERK, pMEK, pRSK) in A375 and HCT-116; assay: Western blot of MAPK pathway readouts, treatment with trametinib combinations; format: cell-based
ERK = assay: Inhibitory activity against purified ERK; format: biochemical
[3] = tested on: ERK phosphorylation in HCT-116 cell line; assay: ERK phosphorylation dose response to trametinib, HCT-116; format: cell-based; settings: HCT-116 (Ras-mutant)
[4] = tested on: ERK phosphorylation in SK-MEL-239 cell line; assay: ERK phosphorylation dose response to trametinib, SK-MEL-239; format: cell-based; settings: SK-MEL-239 (RAF-mutant)
[5] = target: KSR2:MEK1 phosphorylation by B-RAF (Homo sapiens (Human), UniProt Q6VAB6); assay: RAF phosphorylation assay, KSR2:MEK1 substrate; format: biochemical; settings: 10 μM compound, 100 μM ATP, pMEK Ser218/Ser222
Description: as §1, §2

[6] = target: KSR2^A690F:MEK1 phosphorylation by B-RAF (Homo sapiens (Human), UniProt Q6VAB6, A690F); assay: RAF phosphorylation assay, KSR2^A690F:MEK1 substrate; format: biochemical; settings: 10 μM compound
Description: as §1, §2

[7] = target: KSR2 (purified hKSR2-rMEK1 complex) (Homo sapiens (Human), UniProt Q6VAB6); assay: ATP-biotin probe labeling and inhibitor competition (KSR2 band); format: binding; settings: ATPbiotin probe labeling competition; 0.1 μM KSR2:MEK1; 27 nM to 20 μM compound; triplicate; read-out: KSR2 IC50
From the text: Human KSR2 (residues 634-950) and rabbit MEK1 (residues 1 to 393) were codon optimized for insect cell expression by DNA 2.0. Inserts were expressed with TEV cleavable 6×-His tags from the pFastBac Dual expression vector. Bacmids were used to transfect adherent SF21 cells and viruses were subsequently titred to high levels through serial infections of SF21 cells. […] Briefly, following infections, cells were harvested, lysed, and affinity purified using Co2+ sepharose resin (GoldBio). […] Dialysis retentate was diluted 3 fold and then applied to a Resourse S ion exchange column. […] One-to-one hKSR2-MEK1 complexes were captured in late fractions from an increasing salt gradient. Complexes were later applied to a 120 mL Superdex 200 gel filtration column and finally concentrated to approximately 10 mg/mL before flash freezing for biochemical assays.
The ATP-biotin assay was performed in buffer containing 25 mM Tris pH 7.5, 150 mM NaCl, 10 mM MgCl2, and 2% DMSO. […] In particular, hKSR2-rMEK1 was pre-incubated with 20 μM of the indicated compounds for 15 minutes. Then, ATP-biotin (Pierce Cat. #88310) was added to a final concentration of 2 μM. Reactions were incubated at room temperature for 5 minutes before being stopped by the addition of 6×SDS loading dye. […] Enhanced chemiluminescence signals corresponding to labeling on KSR2 and MEK1 were visualized and quantified using the Biodoc system (Biorad). Relative signals of Streptavidin HRP on bands corresponding to KSR2 and MEK1 in the presence of compounds relative to DMSO controls were used to determine ‘Percent Inhibition of ATP Probe Labeling’.
For the ATP^biotin labeling competition screen, samples were applied to a 4-20% Tris-HCl gel, separated, and then transferred to a nitrocellulose membrane. The membrane was blocked with 5% bovine serum albumin diluted in TBS-T for 30 minutes and subsequently probed with the Pierce™ High Sensitivity Streptavidin-HRP. After several washes, the membranes were visualized using enhanced chemiluminescence on a Biodoc (Biorad).

A549 = assay: Cell viability, combination with trametinib, A549; format: cell-based; settings: A549 (Ras-mutant)
Description: (§3) High BLISS scores indicate statistically significant synergy between Compound 21 and trametinib specifically within K-Ras mutant cells. Numbers listed within synergy matrices, representing % growth inhibition relative to DMSO controls, are mean of two replicates. Insets highlight dose responses of trametinib in the absence or presence of 1 μM Compound 21.
(§4) The viability ratio represented the viability observed for treated (inhibitors) relative to controls (DMSO).

HCT-116 = assay: Cell viability, combination with trametinib, HCT-116; format: cell-based
Description: as §3
FIGS. 13A-13D show data validating that Compound 21 is synergistic with trametinib in Ras-mutant cells. […] FIGS. 13C-13D show log of the combination index (CI) graphs of Compound 21 in combination with trametinib in HCT-116 vs. SK-MEL-239 cells as compared to the fractional effect (Fa).
as §4

COc1cc2ncnc(Nc3ccc(Oc4ccccc4)cc3C)c2cc1OC [Compound 21, 6,7-Dimethoxy-N-(2-methyl-4-phenoxyphenyl)quinazolin-4-amine 2,2,2-trifluoroacetate]
MEK phosphorylation by RAF, KSR absent [1]: essentially inactive
inhibitory activity against purified RAF (RAF): lacked detectable inhibitory activity
MAPK pathway inhibition (pERK, pMEK, pRSK), single agent ([2]; alone, compared with Compound 21 + trametinib co-treatment): did not display the same pathway inhibition
MAPK pathway inhibition (pERK, pMEK, pRSK) in combination with trametinib ([2]; combined with trametinib, A375 and HCT-116): reduction in MAPK pathway readouts
inhibitory activity against purified ERK (ERK): lacked detectable inhibitory activity
enhancement in the IC90 of trametinib on ERK phosphorylation [3]: 2 fold
enhancement in the IC90 of trametinib on ERK phosphorylation [4]: not
KSR-stimulated MEK phosphorylation by RAF [5]: significantly reduced
MEK phosphorylation by RAF, KSR2^A690F mutant [6]: essentially inactive
IC50 [7]: 120 ± 23 nM
shift of cell viability dose response to trametinib (A549): shifted the cell viability dose response to trametinib
shift of cell viability dose response to trametinib (HCT-116; HCT-116 (Ras-mutant)): shifted the cell viability dose response to trametinib
combination index (CI) with trametinib (HCT-116; HCT-116, negative log CI over broad Fa range): strong synergy
